Patent US10919843B2, “Cannabidiol derivatives as inhibitors of the HIF prolyl hydroxylases activity” (priority 2017, dated 2021)
pEC50: −log10 of the molar value.

Experiments:
HIF-1α [1] = assay: HIF-1α transactivation assay in NIH-3T3-EPO-Luc cells; assay type: cell-based; settings: for pEC50: read-out: Potency EC50 HIF-1α; for Efficacy HIF-1α (IRA coefficient): relative to 150 μM DFX
Experimental: (§1) To investigate the biological activities of the different compounds, HIF-1α transactivation assays were performed either in NIH-3T3-EPO-Luc cells (Table 1) or in HaCaT-EPO-luc cells (Table 2). The NIH3T3-EPO-luc and HaCaT-EPO-luc cells have been stably transfected with the plasmid Epo-Luc plasmid. The EPO-Hypoxia Response Element (HRE)-luciferase reporter plasmid contains three copies of the HRE consensus sequence from the promoter of the erythropoietin gene fused to the luciferase gene.
NIH3T3-EPO-luc cells were maintained at 37° C. in a humidified atmosphere containing 5% CO2 in DMEM supplemented with 10% fetal calf serum (FBS), and 1% (v/v) penicillin/streptomycin. Deferoxamine (DFX) was purchased from Sigma-Aldrich (USA). Cells (1×10^4/well in 96-well plates) were seeded the day before the assay. The next day, the cells were stimulated with increasing concentrations of either Cannabidiol (CBD), VCE-004 or compounds II to X. After six hours of stimulation the cells were lysed in 25 mM Tris-phosphate pH 7.8, 8 mM MgCl2, 1 mM DTT, 1% Triton X-100, and 7% glycerol during 15 min at RT in a horizontal shaker. Luciferase activity was measured using a microplate luminometer (Berthold) following the instructions of the luciferase assay kit (Promega, Madison. Wis., USA).
(§2) HaCaT-EPO-Luc cells were maintained at 37° C. in a humidified atmosphere containing 5% CO2 in DMEM supplemented with 10% fetal calf serum (FBS), and 1% (v/v) penicillin/streptomycin. The cells (1×10^5/well in 24-well plates) were seeded the day before the assay and then stimulated with increasing concentrations of either Cannabidiol (CBD), VCE-004 or compounds II to X. After six hours of stimulation the cells were lysed in 25 mM Tris-phosphate pH 7.8, 8 mM MgCi2, 1 mM DTT, 1% Triton X-100, and 7% glycerol during 15 min at RT in a horizontal shake. Luciferase activity was measured in the cell lysates as indicated for NIH3T3-EPO-Luc cells. The RLUs are calculated and the EC50 and IRA (Intrinsic relative activity) values in both cell lines were determined relative to 150 μM deferoxamine (DFX) using the following equation: IRA coefficient=(EC50-DFX×Emax)/(EC50×Emax-DFX), where EC50 and Emax denote EC50 and Emax of the agonist, and EC50-DFX and Emax-DFX denote EC50 and Emax values of the standard agonist DFX (Table 1 and 2).

HIF-1α [2] = assay: HIF-1α transactivation assay in HaCaT-EPO-luc cells; assay type: cell-based; settings: for pEC50: read-out: Potency EC50 HIF-1α; for Efficacy HIF-1α (IRA coefficient): relative to 150 μM DFX
Experimental: as §1, §2

[3] = NIH-3T3-EPO-Luc cells, 6 h stimulation
[4] = HaCaT-EPO-Luc cells, 6 h stimulation

SMILES | pEC50 (HIF-1α [1]; 6 h) | pEC50 (HIF-1α [2]; 6 h) | Efficacy HIF-1α (IRA coefficient) (HIF-1α [1]; [3]) | Efficacy HIF-1α (IRA coefficient) (HIF-1α [2]; [4]) | pEC50 (HIF-1α [2]; [4]) | pEC50 (HIF-1α [1]; [3])
C=C(C)[C@@H]1CCC(C)=C[C@H]1C1=C(O)C(=O)C(CCCCC)=C(NCc2ccccc2)C1=O [Compound VIII] | 5.59 | 5.85 | – | – | – | –
C=C(C)[C@@H]1CCC(C)=C[C@H]1C1=C(O)C(=O)C(CCCCC)=C(NC(C)C)C1=O [Compound VII] | 5.54 | 5.26 | 0.68 | 2.3 | – | –
C=C(C)[C@@H]1CCC(C)=C[C@H]1C1=C(O)C(=O)C(CCCCC)=C(NC)C1=O [Compound VI] | 5.55 | 5.40 | 0.61 | 3.02 | – | –
C=C(C)[C@@H]1CCC(C)=C[C@H]1C1=C(O)C(=O)C(CCCCC)=C(NCCCC)C1=O [Compound V] | 5.74 | 5.72 | 0.85 | 5.01 | – | –
C=C(C)[C@@H]1CCC(C)=C[C@H]1C1=C(O)C(=O)C(CCCCC)=C(NCCCCC)C1=O [III] | 5.44 | – | 0.28 | 5.84 | 5.77 | –
C=C(C)[C@@H]1CCC(C)=C[C@H]1C1=C(O)C(=O)C(CCCCC)=C(NCC)C1=O [II] | 5.37 | 5.49 | 0.46 | 3.87 | – | –
C=C(C)[C@@H]1CCC(C)=C[C@H]1C1=C(O)C(=O)C(CCCCC)=C(NCC(C)C)C1=O [IV] | 5.49 | 5.80 | 0.61 | 5.64 | – | –
C=C(C)[C@@H]1CCC(C)=C[C@H]1C1=C(O)C(=O)C(CCCCC)=C(NCC(C)(C)C)C1=O [IX] | 5.60 | 5.85 | – | – | – | –
C=C(C)[C@@H]1CCC(C)=C[C@H]1C1=C(O)C(=O)C(CCCCC)=C(NCCC(C)C)C1=O [IX] | – | – | 0.8 | 8.64 | – | –
C=C(C)[C@@H]1CCC(C)=C[C@H]1C1=C(O)C(=O)C(CCCCC)=C(NCCC(C)C)C1=O [X] | – | – | 0.29 | 10.35 | 5.92 | 5.48
